Data reported in ChEMBL document CHEMBL1149481, “Inhibitors of epidermal growth factor receptor tyrosine kinase: optimisation of potency and in vivo pharmacokinetics” (Bioorg Med Chem Lett, 2006).
One block for each compound: values may come before it.

Legend:
[1] = Bioavailability in Wistar rat at 2 mg/kg, iv and 10 mg/kg, po; assay type: ADME, organism-based; settings: in vivo
[2] = Volume of distribution in Wistar rat at 2 mg/kg, iv and 10 mg/kg, po; assay type: ADME, organism-based; settings: in vivo, read-out: Vdss
Rattus norvegicus [3] = test: AUC in Wistar rat at 10 mg/kg, po normalized to 1 mg/kg; assay type: ADME, organism-based, Plasma; settings: in vivo
Mus musculus [4] = test: Free drug level in mouse plasma at 50 mg/kg, po at 4 hrs; assay type: ADME, organism-based; set-up: dose 50 mg/kg, route oral; settings: in vivo
Mus musculus [5] = test: Free drug level in mouse plasma at 50 mg/kg, po at 2 hrs; assay type: ADME, organism-based; set-up: dose 50 mg/kg, route oral; settings: in vivo
Mus musculus [6] = test: Free drug level in mouse plasma at 50 mg/kg, po at 6 hrs; assay type: ADME, organism-based; set-up: dose 50 mg/kg, route oral; settings: in vivo
Mus musculus [7] = test: Free drug level in mouse plasma at 50 mg/kg, po at 24 hrs; assay type: ADME, organism-based; set-up: dose 50 mg/kg, route oral; settings: in vivo
in vivo = settings: Wistar, rat, iv, 2 mg/kg
[8] = Bioavailability in Wistar rat at 2 mg/kg, iv and 5 mg/kg, po; assay type: ADME, organism-based; settings: in vivo
[9] = Clearance in Wistar rat at 2 mg/kg, iv and 5 mg/kg, po; assay type: ADME, organism-based; settings: in vivo
[10] = Volume of distribution in Wistar rat at 2 mg/kg, iv and 5 mg/kg, po; assay type: ADME, organism-based; settings: in vivo, read-out: Vdss
Rattus norvegicus [11] = test: AUC in Wistar rat at 5 mg/kg, po normalized to 1 mg/kg; assay type: ADME, organism-based, Plasma; settings: in vivo
[12] = AUC in nude mouse xenografted with human LoVo cell at 50 mg/kg, po; assay type: ADME, organism-based; set-up: dose 50 mg/kg, route oral; settings: in vivo
[13] = AUC in nude mouse xenografted with human LoVo cell at 100 mg/kg, po; assay type: ADME, organism-based; set-up: dose 100 mg/kg, route oral; settings: in vivo
[14] = Cmax in nude mouse xenografted with human LoVo cell at 50 mg/kg, po; assay type: ADME, organism-based; set-up: dose 50 mg/kg, route oral; settings: in vivo
[15] = Cmax in nude mouse xenografted with human LoVo cell at 100 mg/kg, po; assay type: ADME, organism-based; set-up: dose 100 mg/kg, route oral; settings: in vivo
[16] = Volume of distribution in rat; assay type: ADME, organism-based; settings: in vivo
[17] = Half life in rat; assay type: ADME, organism-based; settings: in vivo
[18] = Terminal half life in human; assay type: ADME, organism-based; settings: in vivo, read-out: beta t1/2 (converted)
[19] = Terminal half life in cancer affected human; assay type: ADME, organism-based; settings: in vivo, read-out: beta t1/2 (converted)
[20] = AUC in nude mouse xenografted with human LoVo cell at 50 mg/kg, po, twice daily; assay type: ADME, organism-based; set-up: dose 50 mg/kg; settings: in vivo
[21] = Cmax in nude mouse xenografted with human LoVo cell at 50 mg/kg, po, twice daily; assay type: ADME, organism-based; set-up: route oral, dose 50 mg/kg; settings: in vivo

pKa (physchem): 9.3
SMILES: COc1cc2ncnc(Nc3cc(Cl)ccc3F)c2cc1OCC1CCN(C)CC1

pKa (physchem): 9.3
SMILES: COc1cc2ncnc(Nc3ccc(F)c(Cl)c3)c2cc1OCC1CCN(C)CC1

pKa (physchem): 9.3
SMILES: COc1cc2c(Nc3ccc(Br)cc3F)ncnc2cc1OCC1CCN(C)CC1 [VANDETANIB]

pKa (physchem): 8.8
SMILES: COc1cc2ncnc(Nc3ccc(F)c(Cl)c3)c2cc1OC1CCN(C)CC1

pKa (physchem): 9.3
SMILES: COc1cc2ncnc(Nc3cccc(Cl)c3F)c2cc1OCC1CCN(C)CC1

More lines, now with the values behind:

SMILES: COc1cc2ncnc(Nc3cc(Cl)ccc3F)c2cc1OCCCN1CCOCC1
bioavailability [1]: 71%
Vd [2]: 3.5 L/kg
AUC (Rattus norvegicus [3]): 1.64 µM·h
Cp (Mus musculus [4]): 360 nM
Cp (Mus musculus [5]): 300 nM
Cp (Mus musculus [6]): 170 nM
Cp (Mus musculus [7]): 0 nM
clearance (in vivo): 16 mL/min/kg

SMILES: COc1cc2ncnc(Nc3cccc(Cl)c3F)c2cc1OC1CCN(C)CC1
bioavailability [8]: 74%
clearance [9]: 129 mL/min/kg
Vd [10]: 20.8 L/kg
AUC (Rattus norvegicus [11]): 0.08 µM·h
pKa (physchem): 8.8

SMILES: COc1cc2ncnc(Nc3ccc(F)c(Cl)c3)c2cc1OCCCN1CCOCC1 [GEFITINIB]
bioavailability [1]: 56%
Vd [2]: 5.8 L/kg
AUC (Rattus norvegicus [3]): 0.32 µM·h
Cp (Mus musculus [4]): 130 nM
Cp (Mus musculus [5]): 260 nM
Cp (Mus musculus [6]): 150 nM
Cp (Mus musculus [7]): 10 nM
AUC [12]: 78.7 µM·h
AUC [13]: 85.9 µM·h
Cmax [14]: 8100 nM
Cmax [15]: 6700 nM
Vd [16]: 5.8 L/kg
half-life [17]: 7 h
half-life [18]: 28 h
half-life [19]: 37 h

SMILES: COc1cc2ncnc(Nc3cc(Cl)ccc3F)c2cc1OC1CCN(C)CC1
pKa (physchem): 8.8

SMILES: COc1cc2ncnc(Nc3cc(Cl)ccc3F)c2cc1OC1CCN(CC(N)=O)CC1
pKa (physchem): 6.7

SMILES: COc1cc2ncnc(Nc3cccc(Cl)c3F)c2cc1OCCCN1CCOCC1
bioavailability [1]: 73%
Vd [2]: 4.3 L/kg
AUC (Rattus norvegicus [3]): 0.94 µM·h
Cp (Mus musculus [4]): 680 nM
Cp (Mus musculus [5]): 430 nM
Cp (Mus musculus [6]): 410 nM
Cp (Mus musculus [7]): 10 nM
clearance (in vivo): 29 mL/min/kg

SMILES: COc1cc2ncnc(Nc3cccc(Cl)c3F)c2cc1OC1CCN(S(C)(=O)=O)CC1
bioavailability [8]: 45%
clearance [9]: 13 mL/min/kg
Vd [10]: 1.5 L/kg
AUC (Rattus norvegicus [11]): 1.18 µM·h
AUC [12]: 225 µM·h
AUC [13]: 450 µM·h
AUC [20]: 286 µM·h
Cmax [14]: 30600 nM
Cmax [15]: 36800 nM
Cmax [21]: 23900 nM
half-life [17]: 1.6 h

SMILES: COc1cc2ncnc(Nc3cccc(Cl)c3F)c2cc1OC1CCN(CC(N)=O)CC1
bioavailability [8]: 27%
clearance [9]: 16 mL/min/kg
Vd [10]: 2.7 L/kg
AUC (Rattus norvegicus [11]): 0.59 µM·h
pKa (physchem): 6.7

SMILES: COCCN1CCC(Oc2cc3c(Nc4cccc(Cl)c4F)ncnc3cc2OC)CC1
bioavailability [8]: 30%
clearance [9]: 11 mL/min/kg
Vd [10]: 1.3 L/kg
AUC (Rattus norvegicus [11]): 0.95 µM·h
pKa (physchem): 8.1

SMILES: COCCN1CCC(Oc2cc3c(Nc4cc(Cl)ccc4F)ncnc3cc2OC)CC1
pKa (physchem): 8.1
